The values below come from PubChem BioAssay AID250 (DTP/NCI, 2004).

Inconclusive results and toxic doses are left out.

This experiment has as its system BDF1 mice, L1210 leukemia sc, survival T/C. The experiment can be described thus: NCI In Vivo Anticancer Drug Screen. Data for tumor model L1210 Leukemia (subcutaneous) in B6D2F1 (BDF1) mice. The conditions noted are these: higher = longer survival. In short, it runs like this:
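Expressed as T/C: measurement in compound-treated, tumor-bearing mice relative to vehicle-treated control mice, based on survival or tumor size.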

Setting [1] is: endpoint: median survival time, dose: 8.4 mg/kg/injection, schedule: Q01DX Z (sc), vehicle: water.
[2] abbreviates: endpoint: median survival time, dose: 14.0 mg/kg/injection, schedule: Q01DX Z (sc), vehicle: water.
The mark [3] stands for this setting: endpoint: median survival time, dose: 39.0 mg/kg/injection, schedule: Q01DX Z (sc), vehicle: methylcellulose (MC).
Where [4] appears, read: endpoint: median survival time, dose: 65.0 mg/kg/injection, schedule: Q01DX Z (sc), vehicle: methylcellulose (MC).
The mark [5] stands for this setting: endpoint: median survival time, dose: 108.0 mg/kg/injection, schedule: Q01DX Z (sc), vehicle: methylcellulose (MC).
Setting [6] is: endpoint: median survival time, dose: 180.0 mg/kg/injection, schedule: Q01DX Z (sc), vehicle: methylcellulose (MC).
The mark [7] stands for this setting: endpoint: median survival time, dose: 300.0 mg/kg/injection, schedule: Q01DX Z (sc), vehicle: methylcellulose (MC).

As for `CN(C)c1ccc(Nc2c3ccccc3nc3ccccc23)cc1`, the T/C (endpoint: median survival time, dose: 93.0 mg/kg/injection, schedule: Q01DX Z (sc), vehicle: saline) is 104 % of control; the T/C (endpoint: median survival time, dose: 155.0 mg/kg/injection, schedule: Q01DX Z (sc), vehicle: saline) was 113 % of control; the T/C (endpoint: median survival time, dose: 259.0 mg/kg/injection, schedule: Q01DX Z (sc), vehicle: saline) is 109 % of control; the T/C (endpoint: median survival time, dose: 432.0 mg/kg/injection, schedule: Q01DX Z (sc), vehicle: saline) is 113 % of control.
For `CCOC(=O)c1ccc(N)nc1`, the T/C is 100 % of control (endpoint: median survival time, dose: 1.81 mg/kg/injection, schedule: Q01DX Z (sc), vehicle: water); 100 % of control (endpoint: median survival time, dose: 3.02 mg/kg/injection, schedule: Q01DX Z (sc), vehicle: water); 100 % of control (endpoint: median survival time, dose: 5.04 mg/kg/injection, schedule: Q01DX Z (sc), vehicle: water); 100 % of control under setting [1]; 100 % of control under setting [2]; 100 % of control (endpoint: median survival time, dose: 23.3 mg/kg/injection, schedule: Q01DX Z (sc), vehicle: water). The T/C (endpoint: median survival time, dose: 38.9 mg/kg/injection, schedule: Q01DX Z (sc), vehicle: water) is 100 % of control.
Consider `C[n+]1cccc2cc(NC(=O)c3ccc(C(=O)Nc4ccc5c(ccc[n+]5C)c4)cc3)ccc21`, for which the T/C reads like this: (endpoint: median survival time, dose: 3.0 mg/kg/injection, schedule: Q01DX Z (sc), vehicle: saline) 100 % of control; (endpoint: median survival time, dose: 5.0 mg/kg/injection, schedule: Q01DX Z (sc), vehicle: saline) 100 % of control; (endpoint: median survival time, dose: 8.4 mg/kg/injection, schedule: Q01DX Z (sc), vehicle: saline) 100 % of control; (endpoint: median survival time, dose: 14.0 mg/kg/injection, schedule: Q01DX Z (sc), vehicle: saline) 105 % of control; (endpoint: median survival time, dose: 23.0 mg/kg/injection, schedule: Q01DX Z (sc), vehicle: saline) 100 % of control; (endpoint: median survival time, dose: 39.0 mg/kg/injection, schedule: Q01DX Z (sc), vehicle: saline) 233 % of control. Besides, the T/C is 172 % of control (endpoint: median survival time, dose: 65.0 mg/kg/injection, schedule: Q01DX Z (sc), vehicle: saline); 205 % of control (endpoint: median survival time, dose: 108.0 mg/kg/injection, schedule: Q01DX Z (sc), vehicle: saline); 194 % of control (endpoint: median survival time, dose: 180.0 mg/kg/injection, schedule: Q01DX Z (sc), vehicle: saline).
In the case of `Cc1cccc2c(Nc3ccc(NS(C)(=O)=O)cc3)c3ccc([N+](=O)[O-])cc3nc12`, under “endpoint: mean survival time, dose: 10.0 mg/kg/injection, schedule: Q01DX009 (ip), vehicle: saline”, the T/C is 158 % of control.
Regarding `CC[C@@]1(O)C(=O)OCc2c1cc1n(c2=O)Cc2cc3ccccc3nc2-1`, the T/C runs as follows: (endpoint: median survival time, dose: 0.65 mg/kg/injection, schedule: Q01DX Z (sc), vehicle: carboxymethylcellulose (CMC)) 100 % of control; (endpoint: median survival time, dose: 1.08 mg/kg/injection, schedule: Q01DX Z (sc), vehicle: carboxymethylcellulose (CMC)) 100 % of control; (endpoint: median survival time, dose: 1.8 mg/kg/injection, schedule: Q01DX Z (sc), vehicle: carboxymethylcellulose (CMC)) 122 % of control; (endpoint: median survival time, dose: 3.0 mg/kg/injection, schedule: Q01DX Z (sc), vehicle: carboxymethylcellulose (CMC)) 118 % of control.
As for `O=C1OC(C(O)CO)C(O)=C1O` (stereo unspecified), the T/C is, setting by setting: (endpoint: mean survival time, dose: 0.2 mg/kg/injection, schedule: Q08HX010 (ip), vehicle: other) 91 % of control; (endpoint: mean survival time, dose: 0.25 mg/kg/injection, schedule: Q08HX010 (ip), vehicle: other) 95 % of control; (endpoint: mean survival time, dose: 0.3 mg/kg/injection, schedule: Q08HX010 (ip), vehicle: other) 93 % of control; (endpoint: mean survival time, dose: 0.5 mg/kg/injection, schedule: Q08HX010 (ip), vehicle: other) 84 % of control.
In the case of `COc1cc([C@@H]2c3cc4c(cc3[C@H](OC(=O)CCCC(=O)O)[C@H]3COC(=O)[C@H]23)OCO4)cc(OC)c1OC`, the T/C is 100 % of control (endpoint: median survival time, dose: 5.0 mg/kg/injection, schedule: Q01DX Z (sc), vehicle: water); 109 % of control under setting [1]; 113 % of control under setting [2]; 113 % of control (endpoint: median survival time, dose: 23.0 mg/kg/injection, schedule: Q01DX Z (sc), vehicle: water); 118 % of control (endpoint: median survival time, dose: 39.0 mg/kg/injection, schedule: Q01DX Z (sc), vehicle: water); 118 % of control (endpoint: median survival time, dose: 65.0 mg/kg/injection, schedule: Q01DX Z (sc), vehicle: water). The T/C (endpoint: median survival time, dose: 108.0 mg/kg/injection, schedule: Q01DX Z (sc), vehicle: water) was 118 % of control.
`COc1cccc2c1C(=O)c1c(O)c3c(c(O)c1C2=O)CC(O)(C(=O)CO)CC3OC1CC(N)C(O)C(C)O1` (stereo unspecified): the T/C was 87 % of control (endpoint: median survival time, dose: 11.4 mg/kg/injection, schedule: Q04DX003 (ip), vehicle: saline); 89 % of control (endpoint: median survival time, dose: 22.8 mg/kg/injection, schedule: Q04DX003 (ip), vehicle: saline); 90 % of control (endpoint: median survival time, dose: 45.6 mg/kg/injection, schedule: Q04DX003 (ip), vehicle: saline); 95 % of control (endpoint: median survival time, dose: 91.2 mg/kg/injection, schedule: Q04DX003 (ip), vehicle: saline); 103 % of control (endpoint: median survival time, dose: 182.4 mg/kg/injection, schedule: Q04DX003 (ip), vehicle: saline).
Turning to `CC[C@H](c1ccc(O)cc1)[C@@H](CC)c1ccc(O)cc1`, the T/C is, setting by setting: under setting [3], 100 % of control; under setting [4], 100 % of control; under setting [5], 100 % of control.
In the case of `CCCNc1ncnc2[nH]ncc12`, the T/C is 120 % of control (endpoint: median survival time, dose: 64.8 mg/kg/injection, schedule: Q01DX Z (sc), vehicle: methylcellulose (MC)); 110 % of control under setting [5]; 100 % of control under setting [6]; 100 % of control under setting [7]; 100 % of control (endpoint: median survival time, dose: 500.0 mg/kg/injection, schedule: Q01DX Z (sc), vehicle: methylcellulose (MC)).
`C=CCCCCCCCCC(C)(N)C(=O)O` (stereo unspecified): the T/C runs as follows: (endpoint: median survival time, dose: 14.0 mg/kg/injection, schedule: Q01DX Z (sc), vehicle: methylcellulose (MC)) 100 % of control; (endpoint: median survival time, dose: 23.0 mg/kg/injection, schedule: Q01DX Z (sc), vehicle: methylcellulose (MC)) 90 % of control; under setting [3], 90 % of control; under setting [4], 95 % of control; under setting [5], 95 % of control; under setting [6], 100 % of control. Further, the T/C under setting [7] is 95 % of control.
